Columns and labels:
[1] = molecular target: T1, purified human recombinant HER2 kinase (Lys676-Val1255, GST fusion) (Homo sapiens, UniProt P04626); assay: HER2 kinase enzyme inhibitory activity (HTRF); assay type: biochemical; conditions: 200 μM ATP, FLT3 analogous peptide substrate, 60 minutes at room temperature
T1 construct: human recombinant HER2 kinase (Lys676-Val1255, GST fusion); GST
Method: The HER2 kinase enzyme inhibitory activity of a compound of the present invention was evaluated by using a purified human recombinant HER2 kinase (Lys676-Val1255, GST fusion) and a synthetic peptide as a substrate, and detecting the phosphorylation level of the substrate by the HTRF method (homogeneous time resolved fluorescence method). Specifically, 25 ng/well of activated HER2, 200 μM of ATP, 200 ng/well of FLT3 analogous peptide (biotin label, peptide sequence is AGGSSDNEYFYVDF), and test compound (final concentration 0.01 nM to 30 μM) were mixed in kinase reaction buffer (60 mM HEPES, 5 mM MgCl2, 5 mM MnCl2, 3 mM Na3VO4, 1.25 mM DTT, pH 7.5) to prepare 50 μL/well of total reaction volume, and the mixture was reacted for 60 minutes at room temperature. Then, the phosphorylation reaction was stopped and HTRF reaction was carried out by adding 25 μL/well of PBS solution comprising the following components and reacting the mixture for 12 to 16 hours at 4° C. The following components were dissolved in PBS (pH 7.0) to prepare the PBS solution composition: 60 mM EDTA (final concentration 20 mM), 1.2 M KF (final concentration […]), 1 mg/mL BSA (final concentration 333 μg/mL), 6 μg/mL anti-PY20-Cryptate (Cisbio international, France, final concentration 2 μg/mL), and 15 μg/mL Streptavidin labeled with XL665 (Cisbio international, France, final concentration 5 μg/mL).

[2] = test system: HER2 overexpressed gastric cancer cell line NCI-N87; assay: Cytotoxic activity (in vitro), CellTiter-Glo viable cell count; assay type: cell-based; conditions: Homo sapiens, NCI-N87, 72 h, NCI-N87, cultured for 72 hours
Method: The cytotoxic activity of a compound of the present invention was investigated using a HER2 overexpressed gastric cancer cell line NCI-N87. Specifically, an appropriate amount of cells was seeded into a 96-well plate for cell culture at 50 μL/well, and precultured overnight at 37° C. under 5% —CO2 condition. A solution of a test compound in DMSO with dilution series was diluted with medium, and added to the precultured cells at the volume of 50 μL/well. The mixture was prepared such that the final concentration of DMSO became 0.1%. After the mixture was cultured for 72 hours at 37° C. under 5% —CO2 condition, 100 μL/well of CellTiter-Glo solution (Promega, Madison, Wis.) was added, the luminescence was measured using a luminometer (Wallac ARVO™ SX) 10 minutes later, and the viable cell count was determined.

[3] = test system: HER2 overexpressed gastric cancer cell line; assay: In vivo anti-tumor effect, subcutaneous tumor transplant in nude mouse; conditions: oral, daily except Saturday and Sunday, 2 to 4 weeks, read-out: Tumor growth inhibition ratio (%); for inhibition in vivo at 100 mg/kg: dosage 100 mg/kg; for inhibition in vivo at 60 mg/kg: dosage 60 mg/kg; for inhibition in vivo at 30 mg/kg: dosage 30 mg/kg
Method: The anti-tumor effect in vivo of a compound of the present invention was evaluated using a HER2 overexpressed gastric cancer cell line. Specifically, a tumor fragment with about 5 mm square was transplanted subcutaneously using a transplantation needle, or an appropriate number of tumor cells was suspended in saline (Otsuka Pharmaceutical Co., Ltd.) and transplanted under the skin of the right axillary region of a nude mouse using a glass syringe equipped with a two-stage needle for subcutaneous injection. After the confirmation of the engraftment of the transplanted tumors, the mice were classified into groups depending on the tumor volume. The test compounds: the Example Compounds 1-1, 1-2, 1-5, 1-8, 1-13, 1-14, 1-15, 1-19, 1-20, 1-22, 2-1, 2-3, and 3-2 were each dissolved or suspended in an appropriate medium and orally administered forcedly to a mouse. The period of administration was varied from 2 weeks to 4 weeks depending on tumor, and the administration was carried out daily with drug holidays of Saturday and Sunday. The major axis (mm) and the minor axis (mm) of a tumor were measured sequentially using an electronic digital vernier caliper, and evaluated by the tumor growth inhibition ratio (GI %) on the judgement day (in principle, the next day of the final administration) using the following calculating formula.
A: Average tumor volume on the judgement day of the group to which a compound was administered (*)
B: Average tumor volume on the judgement day of the untreated control group (*)
*: The tumor volume is calculated by ½×[major axis of tumor]×[minor axis of tumor]^2.

T1 sequence (P04626 676-1255): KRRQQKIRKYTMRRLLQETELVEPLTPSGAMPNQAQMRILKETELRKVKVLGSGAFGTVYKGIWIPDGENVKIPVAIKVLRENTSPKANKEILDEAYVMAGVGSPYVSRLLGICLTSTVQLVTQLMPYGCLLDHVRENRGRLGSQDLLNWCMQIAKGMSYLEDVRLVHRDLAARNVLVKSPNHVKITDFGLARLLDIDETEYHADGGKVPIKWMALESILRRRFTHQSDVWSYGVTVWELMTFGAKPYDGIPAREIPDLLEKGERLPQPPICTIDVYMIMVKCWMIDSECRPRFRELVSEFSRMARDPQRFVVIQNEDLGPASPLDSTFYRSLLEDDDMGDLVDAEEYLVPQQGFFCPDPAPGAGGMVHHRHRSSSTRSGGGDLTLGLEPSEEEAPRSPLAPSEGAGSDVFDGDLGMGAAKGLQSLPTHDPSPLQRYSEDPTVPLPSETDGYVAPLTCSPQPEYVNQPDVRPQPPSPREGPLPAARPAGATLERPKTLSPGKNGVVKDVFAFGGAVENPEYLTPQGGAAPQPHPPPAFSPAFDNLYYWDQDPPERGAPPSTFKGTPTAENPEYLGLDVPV

| IC50 [1] | Compound | GI50 [2] | other results |
| --- | --- | --- | --- |
| 0.05 to 0.1 µM | C[C@@H]1CN(Cc2c[nH]c3ncnc(Nc4ccc(Cl)cc4)c23)CC[C@H]1N (relative stereo) [Example 1-21, trans-[5-(4-Amino-3-methylpiperidin-1-ylmethyl)-7H-pyrrolo[2,3-d]pyrimidin-4-yl](4-chlorophenyl)amine] | 0.02 to 0.05 µM |  |
|  | N[C@@H]1CCN(Cc2c[nH]c3ncnc(Nc4ccc(F)c(Cl)c4)c23)C[C@H]1O (relative stereo) [Example 2-1, trans-4-Amino-1-[4-(3-chloro-4-fluorophenylamino)-7H-pyrrolo[2,3-d]pyrimidin-5-ylmethyl]piperidin-3-ol] | 0.02 to 0.05 µM | inhibition in vivo at 100 mg/kg [3]: 52% |
|  | N[C@@H]1CCN(Cc2c[nH]c3ncnc(Nc4ccc5occc5c4)c23)C[C@H]1O (relative stereo) [Example 2-2, trans-4-Amino-1-[4-(benzofuran-5-ylamino)-7H-pyrrolo[2,3-d]pyrimidin-5-ylmethyl]piperidin-3-ol] | 0.02 to 0.05 µM |  |
|  | N[C@@H]1CCN(Cc2c[nH]c3ncnc(Nc4cccc(Br)c4)c23)C[C@H]1O (relative stereo) [Example 2-3, trans-4-Amino-1-[4-(3-bromophenylamino)-7H-pyrrolo[2,3-d]pyrimidin-5-ylmethyl]piperidin-3-ol] | < 0.02 µM | inhibition in vivo at 100 mg/kg [3]: 76% |
| 0.05 to 0.1 µM | CC1CN(Cc2c[nH]c3ncnc(Nc4ccc(Cl)cc4)c23)CCC1N (single isomer, unassigned; enantiomer 1) [Example 1-22, trans-[5-(4-Amino-3-methylpiperidin-1-ylmethyl)-7H-pyrrolo[2,3-d]pyrimidin-4-yl](4-chlorophenyl)amine [Enantiomer 1]] |  | inhibition in vivo at 60 mg/kg [3]: 88% |
| ≥ 0.1 µM | CC1CN(Cc2c[nH]c3ncnc(Nc4ccc(Cl)cc4)c23)CCC1N (single isomer, unassigned; enantiomer 2) [Example 1-23, trans-[5-(4-Amino-3-methylpiperidin-1-ylmethyl)-7H-pyrrolo[2,3-d]pyrimidin-4-yl](4-chlorophenyl)amine [Enantiomer 2]] |  |  |
|  | NC1CCN(Cc2c[nH]c3ncnc(Nc4ccc5occc5c4)c23)CC1 [Example 1-1, [5-(4-Aminopiperidin-1-ylmethyl)-7H-pyrrolo[2,3-d]pyrimidin-4-yl]benzofuran-5-ylamine] | 0.02 to 0.05 µM | inhibition in vivo at 60 mg/kg [3]: 84% |
|  | NC1CCN(Cc2c[nH]c3ncnc(Nc4ccc(F)c(Cl)c4)c23)CC1 [Example 1-2, [5-(4-Aminopiperidin-1-ylmethyl)-7H-pyrrolo[2,3-d]pyrimidin-4-yl](3-chloro-4-fluorophenyl)amine] | 0.02 to 0.05 µM | inhibition in vivo at 30 mg/kg [3]: 75% |
|  | C#Cc1cccc(Nc2ncnc3[nH]cc(CN4CCC(N)CC4)c23)c1 [Example 1-5, [5-(4-Aminopiperidin-1-ylmethyl)-7H-pyrrolo[2,3-d]pyrimidin-4-yl](3-ethynylphenyl)amine] |  | inhibition in vivo at 30 mg/kg [3]: 90% |
| < 0.01 µM | Cc1ccc(Nc2ncnc3[nH]cc(CN4CCC(N)CC4)c23)cc1Br [Example 1-6, [5-(4-Aminopiperidin-1-ylmethyl)-7H-pyrrolo[2,3-d]pyrimidin-4-yl](3-bromo-4-methylphenyl)amine] | 0.02 to 0.05 µM |  |
| 0.01 to 0.05 µM | NC1CCN(Cc2c[nH]c3ncnc(Nc4cc(F)c(F)c(F)c4)c23)CC1 [Example 1-7, [5-(4-Aminopiperidin-1-ylmethyl)-7H-pyrrolo[2,3-d]pyrimidin-4-yl](3,4,5-trifluorophenyl)amine] | < 0.02 µM |  |
| < 0.01 µM | NC1CCN(Cc2c[nH]c3ncnc(Nc4cccc(Br)c4)c23)CC1 [Example 1-8, [5-(4-Aminopiperidin-1-ylmethyl)-7H-pyrrolo[2,3-d]pyrimidin-4-yl](3-bromophenyl)amine] | < 0.02 µM | inhibition in vivo at 30 mg/kg [3]: 59% |
| 0.01 to 0.05 µM | NC1CCN(Cc2c[nH]c3ncnc(Nc4ccc5[nH]ncc5c4)c23)CC1 [Example 1-9, [5-(4-Aminopiperidin-1-ylmethyl)-7H-pyrrolo[2,3-d]pyrimidin-4-yl](1H-indazol-5-yl)amine] | 0.05 to 0.5 µM |  |
| < 0.01 µM | NC1CCN(Cc2c[nH]c3ncnc(Nc4ccc(Cl)c(Cl)c4)c23)CC1 [Example 1-10, [5-(4-Aminopiperidin-1-ylmethyl)-7H-pyrrolo[2,3-d]pyrimidin-4-yl](3,4-dichlorophenyl)amine] | 0.02 to 0.05 µM |  |
| 0.01 to 0.05 µM | NC1CCN(Cc2c[nH]c3ncnc(Nc4cc(F)cc(Br)c4)c23)CC1 [Example 1-11, [5-(4-Aminopiperidin-1-ylmethyl)-7H-pyrrolo[2,3-d]pyrimidin-4-yl](3-bromo-5-fluorophenyl)amine] | 0.02 to 0.05 µM |  |
| < 0.01 µM | CC1(N)CCN(Cc2c[nH]c3ncnc(Nc4cccc(Br)c4)c23)CC1 [Example 1-12, [5-(4-Amino-4-methylpiperidin-1-ylmethyl)-7H-pyrrolo[2,3-d]pyrimidin-4-yl](3-bromophenyl)amine] |  |  |
| < 0.01 µM | COc1cccc(Nc2ncnc3[nH]cc(CN4CCC(C)(N)CC4)c23)c1 [Example 1-13, [5-(4-Amino-4-methylpiperidin-1-ylmethyl)-7H-pyrrolo[2,3-d]pyrimidin-4-yl](3-methoxyphenyl)amine] |  | inhibition in vivo at 30 mg/kg [3]: 72% |
| 0.01 to 0.05 µM | C#Cc1cccc(Nc2ncnc3[nH]cc(CN4CCC(C)(N)CC4)c23)c1 [Example 1-14, [5-(4-Amino-4-methylpiperidin-1-ylmethyl)-7H-pyrrolo[2,3-d]pyrimidin-4-yl](3-ethynylphenyl)amine] |  | inhibition in vivo at 10 mg/kg ([3]; dosage 10 mg/kg): 75% |
| 0.01 to 0.05 µM | CC1(N)CCN(Cc2c[nH]c3ncnc(Nc4ccc5occc5c4)c23)CC1 [Example 1-15, [5-(4-Amino-4-methylpiperidin-1-ylmethyl)-7H-pyrrolo[2,3-d]pyrimidin-4-yl](benzofuran-5-yl)amine] | 0.02 to 0.05 µM | inhibition in vivo at 60 mg/kg [3]: 90% |
| < 0.01 µM | COCC1(N)CCN(Cc2c[nH]c3ncnc(Nc4cccc(Br)c4)c23)CC1 [Example 1-16, [5-(4-Amino-4-methoxymethylpiperidin-1-ylmethyl)-7H-pyrrolo[2,3-d]pyrimidin-4-yl](3-bromophenyl)amine] | < 0.02 µM |  |
| 0.05 to 0.1 µM | COCC1(N)CCN(Cc2c[nH]c3ncnc(Nc4ccc5occc5c4)c23)CC1 [Example 1-17, [5-(4-Amino-4-methoxymethylpiperidin-1-ylmethyl)-7H-pyrrolo[2,3-d]pyrimidin-4-yl](benzofuran-5-yl)amine] | 0.02 to 0.05 µM |  |
| < 0.01 µM | CNC1CCN(Cc2c[nH]c3ncnc(Nc4cccc(Br)c4)c23)CC1 [Example 1-18] | < 0.02 µM |  |
| ≥ 0.1 µM | COc1ccc(Nc2ncnc3[nH]cc(CN4CCC(N)CC4)c23)cc1 [Example 1-19, [5-(4-Aminopiperidin-1-ylmethyl)-7H-pyrrolo[2,3-d]pyrimidin-4-yl](4-methoxyphenyl)amine] | 0.05 to 0.5 µM | inhibition in vivo at 100 mg/kg [3]: 44% |
| < 0.01 µM | C#Cc1cccc(Nc2ncnc3[nH]cc(CN4CCC(NC)CC4)c23)c1 [Example 3-1, (3-Ethynylphenyl)[5-(4-methylaminopiperidin-1-ylmethyl)-7H-pyrrolo[2,3-d]pyrimidin-4-yl]amine] | < 0.02 µM |  |
